Test results taken from patent US10766855B2, “Hydroxamate triterpenoid derivatives” (VIVACELL BIOTECHNOLOGY ESPANA S.L., priority 2016, dated 2020).

Experiments:
HIF-1α = HIF-1α transactivation assay in NIH-3T3-EPO-Luc fibroblast cells; type: cell-based; conditions: for Efficacy HIF-1α (IRA coefficient) / EC50: 6 h stimulation; for Efficacy HIF-1α (IRA coefficient): relative to 150 μM DFX; for EC50: Fibroblast, read-out: Potency EC50 HIF-1α
Protocol: To investigate the biological activities of the different compounds, HIF-1α transactivation assays were performed either in NIH-3T3-EPO-Luc cells (Table II) or in HaCaT-EPO-luc cells (FIG. 2). The NIH3T3-EPO-luc and HaCaT-EPO-luc cells have been stably transfected with the plasmid Epo-Luc plasmid. The EPO-Hypoxia Response Element (HRE)-luciferase reporter plasmid contains three copies of the HRE consensus sequence from the promoter of the erythropoietin gene fused to the luciferase gene. NIH3T3-EPO-luc cells were maintained at 37° C. in a humidified atmosphere containing 5% CO2 in DMEM supplemented with 10% fetal calf serum (FBS), and 1% (v/v) penicillin/streptomycin. DFX was purchased from Sigma-Aldrich (USA). Cells (1×10^4/well in 96 well plates) were seeded the day before the assay. […] After six hours of stimulation the cells were lysed in 25 mM Tris-phosphate pH 7.8, 8 mM MgCl2, 1 mM DTT, 1% Triton X-100, and 7% glycerol during 15 min at RT in a horizontal shaker. Luciferase activity is measured using a microplate luminometer (Berthold) following the instructions of the luciferase assay kit (Promega, Madison, Wis., USA).

NF-κB = NF-κB inhibition in NIH-3T3-KBF-Luc cells stimulated with TNFα; type: cell-based; conditions: TNFα 30 ng/ml, 6 h
Protocol: To further study the target selectivity of the compounds described in the present invention the effect of the natural triterpenoids (OA; BA, UA, and MA), compounds II to XV of Formula (I) disclosed in present invention, and of comparative compound CDDO-Me on NF-κB inhibition, STAT-3 inhibition, Nrf2 activation and TGR5 activation was analyzed. For this study cell lines NIH-3T3-KBF-Luc, HeLa-STAT3-Luc, HaCaT-ARE-Luc and CHO-TGR5-CRE-luc were used respectively. The NIH3T3-KBF-Luc cell line stably transfected with the plasmid KBF-Luc plasmid, which contains three copies of NF-κB binding site (from major histocompatibility complex promoter), fused to a minimal simian virus 40 promoter driving the luciferase gene. Cells (1×10^4/well) were seeded in 96-well plates, treated with increasing concentrations of the compounds II to XV for 15 min and then stimulated with 30 ng/ml TNFα. After 6 h the luciferase activity in the cell lysates was measured as indicated above.

STAT3 = STAT3 inhibition in HeLa-STAT3-Luc cells stimulated with IFN-γ; type: cell-based; conditions: IFN-γ 25 IU/ml, 6 h
Protocol: (§1) The HeLa-STAT3-luc cells stably transfected with the plasmid 4×M67 pTATA TK-Luc. Cells (20×10^3 cells/ml) were seeded in 96-well plates, treated with increasing concentrations of the compounds II to XIV, and of comparative compound CDDO-Me, for 15 min and then stimulated with IFN-γ 25 IU/ml. After 6 h the luciferase activity in the cell lysates was measured as indicated above. […] The HaCaT-ARE-Luc cell line contains the Nqo1 Antioxidant Response Element (ARE)-Luc reporter plasmid. ARE is activated by all members of the CNC family of factors (Nrf1, Nrf2, Nrf3 and p45 NF-E2). The cells were cultivated in 96-well plates at the concentration of 25×10^3 cells/well in a CO2 incubator at 37° C. For induction of Nrf2 activation the cells were treated with increasing concentrations of the compounds II to XV, and of comparative compound CDDO-Me, for 6 h. As a positive control the cells were treated with 0.02 mM of the antioxidant Tert-butyl-hydroquinone (TBHQ). Luciferase activity in the cell lysates was measured as indicated above and the EC50 calculated (Table III). The CHO-TGR5-CRE-Luc cells stably transfected with the pTGR5 and CRE-Luc. The CRE-responsive luciferase construct encodes the firefly luciferase reporter gene under the control of a minimal (m)CMV promoter and tandem repeats of the CRE transcriptional response element (TRE) and is useful to monitor cAMP signaling pathways activated by TGR5 agonists. Cells (1×10^4/well) were seeded in 96-well plates, treated with increasing concentrations of the compounds II to XV and CDDO-Me, for 6 h. As a positive control the cells were treated with 10 μM of LCA (lithocholic acid). Luciferase activity in the cell lysates was measured as indicated above and the EC50 calculated (Table III).

Nrf2 [1] = assay: Nrf2 activation/inhibition in HaCaT-ARE-Luc cells; type: cell-based; conditions: 6 h
Protocol: as §1

TGR5 = TGR5 activation in CHO-TGR5-CRE-Luc cells; type: cell-based; conditions: 6 h
Protocol: The CHO-TGR5-CRE-Luc cells stably transfected with the pTGR5 and CRE-Luc. […] As a positive control the cells were treated with 10 μM of LCA (lithocholic acid). Luciferase activity in the cell lysates was measured as indicated above and the EC50 calculated (Table III).

Nrf2 [2] = assay: Nrf2 activation/inhibition in HaCaT-ARE-Luc cells; type: cell-based
[3] = test system: STHdhQ7/Q7 and STHdhQ111/Q111 striatal cells; assay: 3-NP-induced cytotoxicity in striatal Q7 and Q111 cells (YOYO-1); type: cell-based, mouse; conditions: 6 h pre-treatment, 3-NP 10 mM 24 h; compound VII increasing concentrations, DFX 50 μM
Protocol: FIG. 8. Compound VII abrogates 3-NP toxicity in Q7 and […] striatal cells. Q7 and Q111 Striatal cells were pretreated with increasing concentrations of compound VII for 6 h and then exposed to 3-NP (10 mM) for an additional 24 h, after which YOYO-1 staining was used to investigate cell death. Cell death was determined using the IncuCyte HD software and the treatment with 3-NP alone in Q111 cells was considered as 100% of cell death.
To investigate whether HIF activation in striatal Q7 and Q111 cells is sufficient to protect striatal neurons (provide neuroprotection), the effect of compound VII on 3-NP induced death was examined. […]
STHdh^Q7/Q7 and STHdh^Q111/Q111 cells (10^4 cells/well in 96-well plates) were incubated with YOYO-1 (Life Technologies) and then treated with 3-NP (10 mM) and or DFX (50 μM) as a positive control for PHDs inhibition. […] The uptake of YOYO-1 by damaged cells correlates with the increase in YOYO-1 fluorescence. Treated cells are placed in an Incucyte FLR imaging system, and the YOYO-1 fluorescence is measured after 24 h of 3-NP treatment. Following the incubation period object counting analysis was performed using the Incucyte FLR software to calculate the total number of YOYO-1 fluorescence positive cells and total DNA containing objects (end point). […]

Structure (SMILES)	IC50 (NF-κB)	IC50 (STAT3)	EC50 (TGR5)	Efficacy HIF-1α (IRA coefficient) (HIF-1α)	EC50 (HIF-1α)	EC50 (Nrf2 [1])	IC50 (Nrf2 [2])	neuroprotection to 3-NP-induced cytotoxicity (cell death) [3]	activation of the EPO promoter as a surrogate marker of HIF-1α pathway activation (in words) (HIF-1α)
CC1(C)CC[C@]2(C(=O)NO)CC[C@]3(C)C(=CC[C@@H]4[C@@]5(C)C=C(O)C(=O)C(C)(C)[C@@H]5CC[C@]43C)[C@@H]2C1 [Compound XV, 2-Hydroxy-3-oxo-oleana-1,12-dien-N-hydroxy-28-amide]	> 50 µM	> 50 µM	> 50 µM	0.06	11.2 µM	> 50 µM	> 50 µM		
CC(=O)N(O)CCCCCNC(=O)CCC(=O)N(O)CCCCCNC(=O)CCC(=O)N(O)CCCCCN [DFX, desferrioxamine, reference compound]								also protected the cells from the cytotoxic activity of 3-NP	
CC1(C)CC[C@]2(C(=O)O)CC[C@]3(C)C(=CC[C@@H]4[C@@]5(C)C[C@@H](O)[C@H](O)C(C)(C)[C@@H]5CC[C@]43C)[C@@H]2C1 [Maslinic acid, reference compound]	> 50 µM	> 50 µM	10.2 µM		> 50 µM	> 50 µM	> 50 µM		None of the natural triterpenoids

Second part, led by results:

IC50 (NF-κB)	IC50 (STAT3)	EC50 (TGR5)	Structure (SMILES)	Efficacy HIF-1α (IRA coefficient) (HIF-1α)	EC50 (HIF-1α)	EC50 (Nrf2 [1])	IC50 (Nrf2 [2])	neuroprotection to 3-NP-induced cytotoxicity (cell death) [3]	activation of the EPO promoter as a surrogate marker of HIF-1α pathway activation (in words) (HIF-1α)
> 50 µM	> 50 µM	> 50 µM	CC1(C)CC[C@]2(C(=O)NO)CC[C@]3(C)C(=CC[C@@H]4[C@@]5(C)C[C@@H](O)[C@H](O)C(C)(C)[C@@H]5CC[C@]43C)[C@@H]2C1 [Compound XIV, (2α,3β) 2,3-Dihydroxy-N-hydroxy-olean-12-en-28-amide]	0.10	7.1 µM	> 50 µM	> 50 µM		
> 50 µM	> 50 µM	[…]	CC1(C)CC[C@]2(C(=O)O)CC[C@]3(C)C(=CC[C@@H]4[C@@]5(C)CC[C@H](O)C(C)(C)[C@@H]5CC[C@]43C)[C@@H]2C1 [Oleanolic acid, reference compound]		> 50 µM	> 50 µM	> 50 µM		None of the natural triterpenoids
